Consider eleven compounds from article PMC7226613, “Antikinetoplastid Activity of Indolocarbazoles from Streptomyces sanyensis” (Biomolecules, 2020).

Like-named read-outs stand apart in the source and are kept apart here.

The test system of data set [1] is epimastigote of T. cruzi (Y strain). In words: Trypanocidal capacity assay, epimastigotes (AlamarBlue). To be noted: 72 h; for IC50: Trypanosoma cruzi, read-out: T. cruzi IC50; for T. cruzi IC50: epimastigotes, mean ± SD. For orientation: Resazurin is reduced to fluorescent resorufin, in cell work by metabolically active cells.
Method: Epimastigotes were cultured in Liver Infusion Tryptose (LIT) medium supplemented with 10% FBS at 26 °C and were grown to the log phase for use in further experiments.
The assay was carried out in vitro against epimastigote stage of T. cruzi. […] Benznidazole (Sigma-Aldrich, Madrid, Spain) was used as a reference drug.
(§3) All experiments were performed three times, in duplicates for each concentration tested, and the mean values were also calculated. A Tukey test was used for analysis of the data.
Data set [2] can be described thus: Cytotoxicity assay (AlamarBlue). To be noted: mouse.
Method: (§4) After 24 h, cell viability was determined using AlamarBlue® method [24]. Miltefosine (Cayman Chemicals, Vitro SA, Madrid, Spain) and benznidazole (Sigma-Aldrich, Madrid, Spain) were used as reference drugs.
as §3
Data set [3] concerns macrophage J774A.1 cell line. In words: Cytotoxicity assay (AlamarBlue). The settings on record: 24 h, AlamarBlue, mean ± SD.
Method: as §4, §3
Data set [4] relates to T. cruzi. Briefly: Plasma membrane permeability (SYTOX Green). It is filed as cell-based, Trypanosoma cruzi. The settings on record: IC90, 24 h. Here is the method: (§1) The SYTOX® Green assay was performed to detect the membrane permeability alterations in parasites. […] SYTOX® Green was added at a final concentration of 1 μM (Molecular Probes).
Data set [5] relates to L. amazonensis. In words: Plasma membrane permeability (SYTOX Green). Format: cell-based, Leishmania amazonensis. To be noted: IC90, 24 h. As to the method: as §1
Data set [6] concerns promastigotes of L. amazonensis (MHOM/BR/77/LTB0016). Briefly: Leishmanicidal capacity assay, promastigotes (AlamarBlue). Format: cell-based, Leishmania amazonensis. To be noted: for IC50 / L. amazonensis IC50: promastigotes, 72 h, mean ± SD.
The test system of data set [7] is L. donovani promastigotes. Briefly: Mitochondrial membrane potential (JC-1). The settings on record: IC90, 24 h. Format: cell-based, Leishmania donovani. Here is the method: (§2) The decrease in the mitochondrial membrane potential was detected using a JC-1 Mitochondrial Membrane, Potential Assay Kit, Cayman Chemical. […] The pellet was resuspended in JC-1 buffer. After that, 100 µL of each treated culture was added to a black 96-well plate (PerkinElmer) and 10 µL of JC-1 was added, and the plate was incubated for half an hour at 26 °C. Green and red fluorescence intensity was measured using an Enspire microplate reader (PerkinElmer, Massachusetts, USA) for 30 min. In addition, the depolarization of the mitochondrial membrane potential was confirmed by microscopic observation using EVOS FL Cell Imaging System AMF4300, Life Technologies, USA.

In data set [8] the test system is L. amazonensis amastigotes. Briefly: Anti-amastigote activity, intra-macrophage stage in J774A.1. To be noted: for Selectivity Index (CC50/IC50): CC50 J774A.1 / IC50 L. amazonensis amastigotes; for IC50: Leishmania amazonensis, J774.A1, read-out: L. Amazonensis Amastigotes IC50.
Method: The anti-amastigote activity was measured according to Jain et al. [26]. […] After one hour of incubation, 100 µL of stationary phase promastigotes of 7-day-old culture was added in a 10:1 ratio (2 × 10^6/mL) and the plates were re-incubated at 37 °C for 24 h to achieve a maximum infection. […] Separately, and in a 96-deep well plate, a serial dilution of the selected compounds was made with the same medium and then 50 μL of each dilution was added to each well. The plates were incubated at 37 °C, 5% CO2 for 24 h. After this incubation, we removed the medium from each well and 30 μL of Schneider medium containing 0.05% SDS was added to each well. The plate was shacked for 30 s and 170 μL of Schneider medium were added to each well. AlamarBlue® at 10% was added into each well and incubated at 26 °C for 72 h. […] Miltefosine (Cayman Chemicals, Vitro SA, Madrid, Spain) was used as reference drug.
as §3
Data set [9] has as its system L. amazonensis promastigotes. Briefly: Mitochondrial membrane potential (JC-1). It is filed as cell-based, Leishmania amazonensis. The settings on record: IC90 (8.36 µM), 24 h. As to the method: as §2
The test system of data set [10] is promastigotes of L. donovani. Briefly: Microscopic morphology of treated promastigotes. The settings on record: 10 µM; flagellar pocket increased, invagination of plasma membrane. Format: cell-based, Leishmania donovani.
Data set [11] concerns promastigotes of L. donovani (MHOM/IN/90/GE1F8R). Briefly: Leishmanicidal capacity assay, promastigotes (AlamarBlue). It is filed as cell-based, Leishmania donovani. The settings on record: 72 h, mean ± SD; for IC50: Leishmania donovani.
Data set [12] deals with L. donovani. Briefly: Plasma membrane permeability (SYTOX Green). Format: cell-based, Leishmania donovani. The settings on record: IC90, 24 h. Here is the method: as §1
Data set [13] relates to T. cruzi epimastigotes. Briefly: Mitochondrial membrane potential (JC-1). It is filed as cell-based, Trypanosoma cruzi. To be noted: IC90, 24 h. As to the method:
as §2

Data set [14] relates to protein kinase C (PKC). The settings on record: cited from earlier work.
The target in data set [15] is phosphorylase kinase. The settings on record: cited from earlier work.
For data set [16], the target named is protein kinase A (PKA). To be noted: cited from earlier work.
Data set [17] is described as follows: in vitro. The settings on record: mouse.
Method: as §4, §3
In data set [18] the test system is macrophage J774A.1 cell line.
Method: as §4, §3

For `O=C(Cn1ccnc1[N+](=O)[O-])NCc1ccccc1` [Benznidazole], the IC50 in [1] was determined as 6.94 ± 1.94 µM. Moreover, the CC50 at 24 h in [2] (J774A.1 macrophage cell line) was determined as 400 ± 4 µM.

Consider `CN[C@@H]1C[C@H]2O[C@@](C)([C@@H]1OC)n1c3ccccc3c3c4c(c5c6ccccc6n2c5c31)C(=O)NC4` [Compound 1, staurosporine], for which the IC50 in data set [1] amounted to 3.63 ± 0.77 µM. For the same compound, the CC50 in data set [3] (read-out: Macrophage J774A.1 CC50) was 8.74 ± 0.72 µM.

Take `CN[C@@H]1C[C@H]2O[C@@](C)([C@@H]1OC)n1c3ccccc3c3c4c(c5c6ccccc6n2c5c31)C(=O)NC4=O` [Compound 2, 7-oxostaurosporine]: the figures for the cytoplasmic membrane permeability entry in [4], in data set [5] and in data set [12] were “remarkable membrane alteration”, “does not seem to be permeable” and “remarkable membrane alteration”, respectively. Further, the IC50 in data set [6] (Leishmania amazonensis) came to 3.58 ± 1.1 µM; in data set [8], 0.1 µM; in data set [1], 1.58 ± 0.52 µM; in [11] it was 0.56 ± 0.06 µM. In data set [6] (Leishmania amazonensis, read-out: IC90 concentration, L. amazonensis promastigotes), the IC90 is 8.36 µM. Further, the results for the “effect on mitochondrial membrane potential (ΔΨm)” value in data set [7], in [9] and in data set [13] were “did not observe any change”, “intense effect” and “did not observe any change”, respectively. For the same compound, the “Selectivity Index (CC50/IC50)” value in data set [8] was determined as 52. Further, the CC50 at 24 h in [2] is 5.2 ± 1.75 µM. For the same compound, the “morphological changes of parasites” value in [10] is “morphological changes”.

On to `CO[C@@H]1C(=O)C[C@H]2O[C@]1(C)n1c3ccccc3c3c4c(c5c6ccccc6n2c5c31)C(=O)NC4` [Compound 3, 4′-demethylamino-4′-oxostaurosporine], for which the IC50 in data set [6] (Leishmania amazonensis) is 17.1 ± 4.78 µM; in data set [8], 2.03 ± 0.27 µM; in data set [1] it was 17.1 ± 1.64 µM; in [11] it was above 40 µM. This compound also showed a CC50 at 24 h in data set [2] (J774A.1 macrophage cell line) above 40 µM. For the same compound, the “Macrophage J774A.1 CC50” value in data set [3] is “low toxicity”.

Turning to `COC1=C(C)O[C@@H]2C[C@@]1(OC)n1c3ccccc3c3c4c(c5c6ccccc6n2c5c31)C(=O)NC4` [Compound 4, streptocarbazole B], the IC50 is 10.4 ± 0.21 µM in data set [6] (Leishmania amazonensis), 2.47 ± 0.09 µM in data set [8], 12.5 ± 2.06 µM in [1] and above 40 µM in data set [11]. The CC50 at 24 h in data set [2] (J774A.1 macrophage cell line) is above 40 µM. The “Macrophage J774A.1 CC50” value in data set [3] was “low toxicity”.

As to `CO[C@H]1[C@H](O)[C@@H](O)[C@H](n2c3c(Cl)cccc3c3c4c(c5c6cccc(Cl)c6[nH]c5c32)C(=O)NC4=O)O[C@@H]1CO` [Compound 5, rebeccamycin], the “inhibitory effect on PKC” value in data set [14] was “no inhibitory effect”. Further, the IC50 in [6] (Leishmania amazonensis), in [1] and in [11] was above 40 µM each time. Moreover, in [6], the “L. amazonensis IC50” value is “completely inactive”. Further, the “T. cruzi IC50” value in data set [1] is “completely inactive”. Also, in data set [2] (J774A.1 macrophage cell line), the CC50 at 24 h stood at 1.42 ± 0.19 µM. In addition, the “L. donovani IC50” value in data set [11] was “completely inactive”.

With `COC(=O)[C@@]1(O)C[C@H]2O[C@]1(C)n1c3ccccc3c3c4c(c5c6ccccc6n2c5c31)C(=O)NC4` [Compound 6, K252a], the IC50 in data set [6] (Leishmania amazonensis) was 5.9 ± 0.96 µM; in data set [15], 0.0017 µM; in [16] it was 0.14 µM; in data set [1], 4 ± 0.24 µM; in data set [11], 8.09 ± 1.12 µM. Also, in data set [2], the CC50 at 24 h worked out at 1.07 ± 0.21 µM.

Regarding `C[C@]12O[C@H](C[C@]1(O)C(=O)O)n1c3ccccc3c3c4c(c5c6ccccc6n2c5c31)CNC4=O` [Compound 7, K252b], the IC50 in data set [6] (Leishmania amazonensis) came out at 20.6 ± 4.5 µM; in [1] it was 7.41 ± 0.93 µM; in data set [11], 4.45 ± 0.71 µM. Besides, in data set [17], the CC50 at 24 h was above 40 µM. Also, the “Macrophage J774A.1 CC50” value in data set [18] is on record as “low toxicity”.

In the case of `O=C1NCc2c1c1c3ccccc3[nH]c1c1[nH]c3ccccc3c21` [Compound 8, K252c], the IC50 in data set [6] (Leishmania amazonensis) was above 40 µM. For the same compound, in data set [6], the “L. amazonensis IC50” value is “completely inactive”. Also, in [1], the IC50 is above 40 µM and the “T. cruzi IC50” value was “completely inactive”. Also, the CC50 at 24 h in data set [2] (J774A.1 macrophage cell line) is 35.4 ± 2.47 µM. For the same compound, the “Macrophage J774A.1 CC50” value in data set [3] is “low toxicity”. Also, in data set [11], the “L. donovani IC50” value is “completely inactive” and the IC50 is above 40 µM.

`O=C1NC(=O)c2c1c1c3ccccc3[nH]c1c1[nH]c3ccccc3c21` [Compound 9, arcyriaflavin A] registered an IC50 in [6] (Leishmania amazonensis) above 40 µM. The “L. amazonensis IC50” value in data set [6] is “completely inactive”. For the same compound, in data set [1], the IC50 was above 40 µM and the “T. cruzi IC50” value is “completely inactive”. Further, the CC50 at 24 h in data set [17] is above 40 µM. Further, in data set [11], the “L. donovani IC50” value was “completely inactive” and the IC50 was above 40 µM. For the same compound, the “Macrophage J774A.1 CC50” value in [18] is on record as “low toxicity”.

Regarding `CCCCCCCCCCCCCCCCOP(=O)([O-])OCC[N+](C)(C)C` [Miltefosine], in data set [8], the “Selectivity Index (CC50/IC50)” value worked out at 23. Besides, the CC50 at 24 h in data set [2] (J774A.1 macrophage cell line) is 72.2 ± 3.06 µM. It took 3.32 ± 0.27 µM to reach half-maximal inhibition in data set [11] (IC50).

As a reminder, the IC50 is the concentration needed to halve the response being measured.
